Source: PubChem BioAssay (NCI)
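Method: 48-hour compound exposure of cells in 96-well plates, five concentrations, linear interpolation of endpoints. Abbreviation: GI50, concentration required for 50% inhibition of growth. TGI is the concentration that stops growth completely.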

Tests used:
Assay in all cases: NCI tumour cell line growth inhibition, 48 h
SN12C renal = test system: SN12C renal
MCF7 breast = test system: MCF7 breast
UACC-257 melanoma = test system: UACC-257 melanoma
OVCAR-4 ovarian = test system: OVCAR-4 ovarian
SF-268 CNS = test system: SF-268 CNS
SK-MEL-28 melanoma = test system: SK-MEL-28 melanoma
T-47D breast = test system: T-47D breast
OVCAR-5 ovarian = test system: OVCAR-5 ovarian
786-0 renal = test system: 786-0 renal
MDA-MB-468 breast = test system: MDA-MB-468 breast
MDA-MB-231 breast = test system: MDA-MB-231 breast
DU-145 prostate = test system: DU-145 prostate
M14 melanoma = test system: M14 melanoma
BT-549 breast = test system: BT-549 breast
COLO 205 colon = test system: COLO 205 colon
HCC-2998 colon = test system: HCC-2998 colon
EKVX NSCLC = test system: EKVX NSCLC
MOLT-4 leukemia = test system: MOLT-4 leukemia
TK-10 renal = test system: TK-10 renal
HOP-62 NSCLC = test system: HOP-62 NSCLC
HOP-92 NSCLC = test system: HOP-92 NSCLC
NCI-H460 lung = test system: NCI-H460 lung
IGROV1 ovarian = test system: IGROV1 ovarian
HT29 colon = test system: HT29 colon
RXF 393 renal = test system: RXF 393 renal
CAKI-1 renal = test system: CAKI-1 renal
MALME-3M melanoma = test system: MALME-3M melanoma
KM12 colon = test system: KM12 colon
SW-620 colon = test system: SW-620 colon
NCI-H226 lung = test system: NCI-H226 lung
NCI-H23 lung = test system: NCI-H23 lung
SF-295 CNS = test system: SF-295 CNS
SR leukemia = test system: SR leukemia
HCT-116 colon = test system: HCT-116 colon
MDA-MB-435 = test system: MDA-MB-435
ACHN renal = test system: ACHN renal
SK-MEL-5 melanoma = test system: SK-MEL-5 melanoma
RPMI-8226 leukemia = test system: RPMI-8226 leukemia
PC-3 prostate = test system: PC-3 prostate
HL-60(TB) leukemia = test system: HL-60(TB) leukemia
CCRF-CEM leukemia = test system: CCRF-CEM leukemia
HS 578T breast = test system: HS 578T breast
UACC-62 melanoma = test system: UACC-62 melanoma
A498 renal = test system: A498 renal
OVCAR-3 ovarian = test system: OVCAR-3 ovarian
LOX IMVI melanoma = test system: LOX IMVI melanoma
K-562 leukemia = test system: K-562 leukemia
UO-31 renal = test system: UO-31 renal
SK-OV-3 ovarian = test system: SK-OV-3 ovarian
OVCAR-8 ovarian = test system: OVCAR-8 ovarian
SF-539 CNS = test system: SF-539 CNS
SNB-75 CNS = test system: SNB-75 CNS
SNB-19 CNS = test system: SNB-19 CNS
U251 CNS = test system: U251 CNS
NCI-H522 lung = test system: NCI-H522 lung
SK-MEL-2 melanoma = test system: SK-MEL-2 melanoma
A549 NSCLC = test system: A549 NSCLC
NCI/ADR-RES ovarian = test system: NCI/ADR-RES ovarian
HCT-15 colon = test system: HCT-15 colon

COc1ccc(/C=C/C(=O)c2ccc(OC)c(S(N)(=O)=O)c2)c(C(F)(F)F)c1
GI50 (SN12C renal): 2.96 µM | TGI (SN12C renal): 11.4 µM | GI50 (MCF7 breast): 2.58 µM | TGI (MCF7 breast): 10.6 µM | GI50 (UACC-257 melanoma): 9.28 µM | TGI (UACC-257 melanoma): 21.9 µM | GI50 (OVCAR-4 ovarian): 3.47 µM | TGI (OVCAR-4 ovarian): 15.7 µM | GI50 (SF-268 CNS): 3.35 µM | TGI (SF-268 CNS): 16.5 µM | GI50 (SK-MEL-28 melanoma): 11.6 µM | TGI (SK-MEL-28 melanoma): 23.8 µM | GI50 (T-47D breast): 4.06 µM | TGI (T-47D breast): 24.7 µM | GI50 (OVCAR-5 ovarian): 2.21 µM | TGI (OVCAR-5 ovarian): 6.33 µM | GI50 (786-0 renal): 3.16 µM | TGI (786-0 renal): 14.4 µM | GI50 (MDA-MB-468 breast): 2.37 µM | TGI (MDA-MB-468 breast): 12 µM | GI50 (MDA-MB-231 breast): 2.37 µM | TGI (MDA-MB-231 breast): 6.14 µM | GI50 (DU-145 prostate): 3.39 µM | TGI (DU-145 prostate): 12.8 µM | GI50 (M14 melanoma): 9.19 µM | TGI (M14 melanoma): 25.2 µM | GI50 (BT-549 breast): 5.04 µM | TGI (BT-549 breast): 16.4 µM | GI50 (COLO 205 colon): 4.76 µM | TGI (COLO 205 colon): 28.9 µM | GI50 (HCC-2998 colon): 10.7 µM | TGI (HCC-2998 colon): 24.2 µM | GI50 (EKVX NSCLC): 3.55 µM | TGI (EKVX NSCLC): 16.1 µM | GI50 (MOLT-4 leukemia): 2.81 µM | TGI (MOLT-4 leukemia): 13.7 µM | GI50 (TK-10 renal): 13.4 µM | TGI (TK-10 renal): 29.9 µM | GI50 (HOP-62 NSCLC): 3.23 µM | TGI (HOP-62 NSCLC): 14.4 µM | GI50 (HOP-92 NSCLC): 11 µM | TGI (HOP-92 NSCLC): 34.8 µM | GI50 (NCI-H460 lung): 2.03 µM | TGI (NCI-H460 lung): 6.2 µM | GI50 (IGROV1 ovarian): 3.98 µM | TGI (IGROV1 ovarian): 15.8 µM | GI50 (HT29 colon): 3.2 µM | TGI (HT29 colon): 11.4 µM | GI50 (RXF 393 renal): 2.79 µM | TGI (RXF 393 renal): 11.4 µM | GI50 (CAKI-1 renal): 3.82 µM | TGI (CAKI-1 renal): 14.6 µM | GI50 (MALME-3M melanoma): 5.96 µM | TGI (MALME-3M melanoma): 20.6 µM | GI50 (KM12 colon): 3.89 µM | TGI (KM12 colon): 19 µM | GI50 (SW-620 colon): 2.07 µM | TGI (SW-620 colon): 6.19 µM | GI50 (NCI-H226 lung): 2.11 µM | TGI (NCI-H226 lung): 5.44 µM | GI50 (NCI-H23 lung): 3.4 µM | TGI (NCI-H23 lung): 14.2 µM | GI50 (SF-295 CNS): 4.37 µM | TGI (SF-295 CNS): 22.5 µM | GI50 (SR leukemia): 3 µM | TGI (SR leukemia): 19.5 µM | GI50 (HCT-116 colon): 2.41 µM | TGI (HCT-116 colon): 6.14 µM | GI50 (MDA-MB-435): 4.23 µM | TGI (MDA-MB-435): 19.6 µM | GI50 (ACHN renal): 4.28 µM | TGI (ACHN renal): 15.7 µM | GI50 (SK-MEL-5 melanoma): 3.42 µM | TGI (SK-MEL-5 melanoma): 15.1 µM | GI50 (RPMI-8226 leukemia): 3.48 µM | TGI (RPMI-8226 leukemia): > 100 µM | GI50 (PC-3 prostate): 4.57 µM | TGI (PC-3 prostate): 18.5 µM | GI50 (HL-60(TB) leukemia): 4.7 µM | TGI (HL-60(TB) leukemia): 30.7 µM | GI50 (CCRF-CEM leukemia): 2.95 µM | TGI (CCRF-CEM leukemia): 9.7 µM | GI50 (HS 578T breast): 2.84 µM | TGI (HS 578T breast): 19.1 µM | GI50 (UACC-62 melanoma): 4.7 µM | TGI (UACC-62 melanoma): 18.1 µM | GI50 (A498 renal): 18.1 µM | TGI (A498 renal): 37.8 µM | GI50 (OVCAR-3 ovarian): 2.89 µM | TGI (OVCAR-3 ovarian): 10.4 µM | GI50 (LOX IMVI melanoma): 2.31 µM | TGI (LOX IMVI melanoma): 6.97 µM | GI50 (K-562 leukemia): 3.24 µM | TGI (K-562 leukemia): 12.6 µM | GI50 (UO-31 renal): 5.14 µM | TGI (UO-31 renal): 18.4 µM | GI50 (SK-OV-3 ovarian): 15.5 µM | TGI (SK-OV-3 ovarian): 43 µM | GI50 (OVCAR-8 ovarian): 2.34 µM | TGI (OVCAR-8 ovarian): 6.27 µM | GI50 (SF-539 CNS): 1.8 µM | TGI (SF-539 CNS): 3.4 µM | GI50 (SNB-75 CNS): 3.22 µM | TGI (SNB-75 CNS): 15.4 µM | GI50 (SNB-19 CNS): 3.95 µM | TGI (SNB-19 CNS): 16.1 µM | GI50 (U251 CNS): 2.58 µM | TGI (U251 CNS): 7.32 µM | GI50 (NCI-H522 lung): 2.51 µM | TGI (NCI-H522 lung): 14.3 µM | GI50 (SK-MEL-2 melanoma): 3.78 µM | TGI (SK-MEL-2 melanoma): 15.9 µM | GI50 (A549 NSCLC): 2.99 µM | TGI (A549 NSCLC): 11.4 µM | GI50 (NCI/ADR-RES ovarian): 2.61 µM | TGI (NCI/ADR-RES ovarian): 10.6 µM | GI50 (HCT-15 colon): 2.32 µM | TGI (HCT-15 colon): 6.72 µM
